{"source": "paper PMC8217813", "about": "“Bridging Computational Vaccinology and Vaccine Development Through Systematic Identification, Characterization, and Downselection of Conserved and Variable Circumsporozoite Protein CD4 T Cell Epitopes From Diverse Plasmodium falciparum Strains” (Frontiers in Immunology, 2021)", "key": {"HLA-DRB1*1301": {"target": "HLA-DRB1*1301 (Homo sapiens, UniProt P01903+P01911, A100E/A169T/K41T/L162R/M171V/P40S/Q125H/Q178H/Q39Y/Q99D/R42S/S66N/T262R/W38E/Y61H)", "experiment": "In vitro class II HLA binding competition assay", "conditions": "competition with fluorescent-labeled reference peptide, class II HLA monomers, 24-hours, test peptide 100,000 nM to 100 nM, time-resolved fluorescence", "experimental": "(§1) EpiVax conducted in vitro quantification of peptide-HLA binding affinity utilizing a competition assay format per the methodology described in ([35]). Briefly, a fluorescent-labeled, high-binding reference peptide and titrating concentrations of test peptide were incubated in a 96-well plate format with limiting concentrations of class II HLA monomers in aqueous buffer for 24-hours. Post incubation, the mixtures were moved to a 96-well plate coated with anti-HLA-DR antibody to capture HLA-peptide complexes. Time-resolved fluorescence measurement of the bound labeled reference peptide complex present in each mixture were detected with a europium-linked probe via fluorescent spectrophotometry using a SpectraMax M5 system. HLA binding affinity of each test peptide was expressed as the percent inhibition of reference peptide binding. Percent inhibition values (across the test peptide titration range) were used to calculate the half maximal inhibitory concentration (IC50) of each test peptide. For these studies, test peptides were assessed using a range of final concentrations from 100,000 nM to 100 nM and all peptides were reconstituted in dimethyl sulfoxide (DMSO)."}, "HLA-DRB1*0801": {"target": "HLA-DRB1*0801 (Homo sapiens, UniProt P01903+P01911, A100R/A103L/A169T/D86S/F76Y/H45Y/I96F/K41T/L162R/M171V/P40S/Q125H/Q178H/Q39Y/Q99D/R218S/R42G/S66Y/V115G/W38E)", "experiment": "In vitro class II HLA binding competition assay", "conditions": "competition with fluorescent-labeled reference peptide, class II HLA monomers, 24-hours, test peptide 100,000 nM to 100 nM, time-resolved fluorescence", "experimental": "as §1"}, "HLA-DRB1*0401": {"target": "T1, HLA-DRB1*0401 (Homo sapiens, UniProt P01903+P01911, A100K/A169T/F76Y/I96L/K127E/L162R/M171V/N62H/P40V/Q125Y/R42H/S133A/S149N/S66Y/V115G/V209L/W38E)", "T1 construct": "purchased", "experiment": "In vitro class II HLA binding competition assay", "conditions": "competition with fluorescent-labeled reference peptide, class II HLA monomers, 24-hours, test peptide 100,000 nM to 100 nM, time-resolved fluorescence; read-out: IC50, DRB1*0401", "experimental": "as §1"}, "HLA-DRB1*1101": {"target": "T2, HLA-DRB1*1101 (Homo sapiens, UniProt P01903+P01911, A100R/A169T/A87E/I96F/K41T/L162R/M171V/P40S/Q125H/Q178H/Q39Y/Q99D/R42S/S66Y/T262R/V115G/W38E)", "T2 construct": "purchased", "experiment": "In vitro class II HLA binding competition assay", "conditions": "competition with fluorescent-labeled reference peptide, class II HLA monomers, 24-hours, test peptide 100,000 nM to 100 nM, time-resolved fluorescence", "experimental": "as §1"}, "[1]": {"system": "CD4 T cells co-cultured with autologous DCs from PBMCs", "format": "cell-based, human", "conditions": "positive = Stimulation Index ≥1.5-fold above baseline, 5 µg/mL peptide"}}, "note": "Peptide text beside a SMILES is read from it."}
{"smiles": "CC(=O)N[C@@H](CCCCN)C(=O)N[C@@H](CCC(N)=O)C(=O)N[C@@H](CCC(=O)O)C(=O)N[C@@H](CC(N)=O)C(=O)N[C@@H](Cc1c[nH]c2ccccc12)C(=O)N[C@@H](Cc1ccc(O)cc1)C(=O)N[C@@H](CO)C(=O)N[C@@H](CC(C)C)C(=O)N[C@@H](CCCCN)C(=O)N[C@@H](CCCCN)C(=O)N[C@@H](CC(N)=O)C(=O)N[C@@H](CO)C(=O)N[C@@H](CCCNC(=N)N)C(=O)N[C@@H](CO)C(=O)N[C@@H](CC(C)C)C(=O)NCC(=O)N[C@@H](CCC(=O)O)C(=O)N[C@@H](CC(N)=O)C(=O)N[C@@H](CC(=O)O)C(N)=O", "note": "[Cluster C2] (Ac-KQENWYSLKKNSRSLGEND-NH2)", "values": [{"measurement": "IC50", "setting": "HLA-DRB1*1301", "result": 37, "unit": "nM"}, {"measurement": "IC50", "setting": "HLA-DRB1*0801", "result": 108, "unit": "nM"}, {"measurement": "IC50", "setting": "HLA-DRB1*0401", "result": 10800, "unit": "nM"}, {"measurement": "IC50", "setting": "HLA-DRB1*1101", "result": 395, "unit": "nM"}, {"measurement": "Percentage of donors demonstrating IFN-γ responses, DR1", "setting": "[1]; DR1 donors N=5, ICCS after 14-day co-culture", "result": 20, "unit": "%"}, {"measurement": "Percentage of donors demonstrating IL-2 responses, DR1", "setting": "[1]; DR1 donors N=5, ICCS", "result": 0, "unit": "%"}, {"measurement": "Percentage of donors demonstrating IL-4 responses, DR1", "setting": "[1]; DR1 donors N=5, ICCS", "result": 40, "unit": "%"}, {"measurement": "Percentage of donors demonstrating IL-10 responses, DR1", "setting": "[1]; DR1 donors N=5, ICCS", "result": 20, "unit": "%"}, {"measurement": "Percentage of donors demonstrating TNF-α responses, DR1", "setting": "[1]; DR1 donors N=5, ICCS", "result": 0, "unit": "%"}, {"measurement": "Percentage of donors demonstrating IFN-γ responses, DR3", "setting": "[1]; DR3 donors N=6, ICCS after 14-day co-culture", "result": 33, "unit": "%"}, {"measurement": "Percentage of donors demonstrating IL-2 responses, DR3", "setting": "[1]; DR3 donors N=6, ICCS", "result": 0, "unit": "%"}, {"measurement": "Percentage of donors demonstrating IL-4 responses, DR3", "setting": "[1]; DR3 donors N=6, ICCS", "result": 0, "unit": "%"}, {"measurement": "Percentage of donors demonstrating IL-10 responses, DR3", "setting": "[1]; DR3 donors N=6, ICCS", "result": 50, "unit": "%"}, {"measurement": "Percentage of donors demonstrating TNF-α responses, DR3", "setting": "[1]; DR3 donors N=6, ICCS", "result": 0, "unit": "%"}, {"measurement": "Percentage of donors demonstrating IFN-γ responses, DR4", "setting": "[1]; DR4 donors N=10, ICCS after 14-day co-culture", "result": 0, "unit": "%"}, {"measurement": "Percentage of donors demonstrating IL-2 responses, DR4", "setting": "[1]; DR4 donors N=10, ICCS", "result": 0, "unit": "%"}, {"measurement": "Percentage of donors demonstrating IL-4 responses, DR4", "setting": "[1]; DR4 donors N=10, ICCS", "result": 10, "unit": "%"}, {"measurement": "Percentage of donors demonstrating IL-10 responses, DR4", "setting": "[1]; DR4 donors N=10, ICCS", "result": 10, "unit": "%"}, {"measurement": "Percentage of donors demonstrating TNF-α responses, DR4", "setting": "[1]; DR4 donors N=10, ICCS", "result": 0, "unit": "%"}, {"measurement": "Percentage of donors demonstrating IFN-γ responses, DR7", "setting": "[1]; DR7 donors N=4, ICCS after 14-day co-culture", "result": 0, "unit": "%"}, {"measurement": "Percentage of donors demonstrating IL-2 responses, DR7", "setting": "[1]; DR7 donors N=4, ICCS", "result": 0, "unit": "%"}, {"measurement": "Percentage of donors demonstrating IL-4 responses, DR7", "setting": "[1]; DR7 donors N=4, ICCS", "result": 25, "unit": "%"}, {"measurement": "Percentage of donors demonstrating IL-10 responses, DR7", "setting": "[1]; DR7 donors N=4, ICCS", "result": 50, "unit": "%"}, {"measurement": "Percentage of donors demonstrating TNF-α responses, DR7", "setting": "[1]; DR7 donors N=4, ICCS", "result": 0, "unit": "%"}, {"measurement": "Percentage of donors demonstrating IFN-γ responses, DR8", "setting": "[1]; DR8 donors N=4, ICCS after 14-day co-culture", "result": 0, "unit": "%"}, {"measurement": "Percentage of donors demonstrating IL-2 responses, DR8", "setting": "[1]; DR8 donors N=4, ICCS", "result": 0, "unit": "%"}, {"measurement": "Percentage of donors demonstrating IL-4 responses, DR8", "setting": "[1]; DR8 donors N=4, ICCS", "result": 0, "unit": "%"}, {"measurement": "Percentage of donors demonstrating IL-10 responses, DR8", "setting": "[1]; DR8 donors N=4, ICCS", "result": 25, "unit": "%"}, {"measurement": "Percentage of donors demonstrating TNF-α responses, DR8", "setting": "[1]; DR8 donors N=4, ICCS", "result": 0, "unit": "%"}, {"measurement": "Percentage of donors demonstrating IFN-γ responses, DR9", "setting": "[1]; DR9 donors N=4, ICCS after 14-day co-culture", "result": 25, "unit": "%"}, {"measurement": "Percentage of donors demonstrating IL-2 responses, DR9", "setting": "[1]; DR9 donors N=4, ICCS", "result": 0, "unit": "%"}, {"measurement": "Percentage of donors demonstrating IL-4 responses, DR9", "setting": "[1]; DR9 donors N=4, ICCS", "result": 25, "unit": "%"}, {"measurement": "Percentage of donors demonstrating IL-10 responses, DR9", "setting": "[1]; DR9 donors N=4, ICCS", "result": 25, "unit": "%"}, {"measurement": "Percentage of donors demonstrating TNF-α responses, DR9", "setting": "[1]; DR9 donors N=4, ICCS", "result": 0, "unit": "%"}, {"measurement": "Percentage of donors demonstrating IFN-γ responses, DR11", "setting": "[1]; DR11 donors N=4, ICCS after 14-day co-culture", "result": 0, "unit": "%"}, {"measurement": "Percentage of donors demonstrating IL-2 responses, DR11", "setting": "[1]; DR11 donors N=4, ICCS", "result": 0, "unit": "%"}, {"measurement": "Percentage of donors demonstrating IL-4 responses, DR11", "setting": "[1]; DR11 donors N=4, ICCS", "result": 0, "unit": "%"}, {"measurement": "Percentage of donors demonstrating IL-10 responses, DR11", "setting": "[1]; DR11 donors N=4, ICCS", "result": 0, "unit": "%"}, {"measurement": "Percentage of donors demonstrating TNF-α responses, DR11", "setting": "[1]; DR11 donors N=4, ICCS", "result": 0, "unit": "%"}, {"measurement": "Percentage of donors demonstrating IFN-γ responses, DR13", "setting": "[1]; DR13 donors N=7, ICCS after 14-day co-culture", "result": 0, "unit": "%"}, {"measurement": "Percentage of donors demonstrating IL-2 responses, DR13", "setting": "[1]; DR13 donors N=7, ICCS", "result": 0, "unit": "%"}, {"measurement": "Percentage of donors demonstrating IL-4 responses, DR13", "setting": "[1]; DR13 donors N=7, ICCS", "result": 0, "unit": "%"}, {"measurement": "Percentage of donors demonstrating IL-10 responses, DR13", "setting": "[1]; DR13 donors N=7, ICCS", "result": 29, "unit": "%"}, {"measurement": "Percentage of donors demonstrating TNF-α responses, DR13", "setting": "[1]; DR13 donors N=7, ICCS", "result": 0, "unit": "%"}, {"measurement": "Percentage of donors demonstrating IFN-γ responses, DR15", "setting": "[1]; DR15 donors N=7, ICCS after 14-day co-culture", "result": 29, "unit": "%"}, {"measurement": "Percentage of donors demonstrating IL-2 responses, DR15", "setting": "[1]; DR15 donors N=7, ICCS", "result": 0, "unit": "%"}, {"measurement": "Percentage of donors demonstrating IL-4 responses, DR15", "setting": "[1]; DR15 donors N=7, ICCS", "result": 0, "unit": "%"}, {"measurement": "Percentage of donors demonstrating IL-10 responses, DR15", "setting": "[1]; DR15 donors N=7, ICCS", "result": 14, "unit": "%"}, {"measurement": "Percentage of donors demonstrating TNF-α responses, DR15", "setting": "[1]; DR15 donors N=7, ICCS", "result": 0, "unit": "%"}]}
